Patent US6838580B2, “Opioid derivative” (Teikoku Seiyaku Co., Ltd., priority 2002, dated 2005)
“Also recorded” adds a separate entry of the source. Marks after values point to notes of the source that are not given here.

How the values were obtained:
δ-opioid receptor = target: T1, δ-opioid receptor (Rattus norvegicus, UniProt P33533); experiment: Competitive receptor binding assay, synaptic membrane fraction, [3H]DPDPE; settings: rat brain synaptic membrane, read-out: Affinity of receptor (Ki, nM) δ
T1 construct: synaptic membrane fraction obtained from the rat brain tissue; from tissue; host or cells: Sprague-Dawley rat brain without cerebellum, synaptic membrane (P2) fraction
Procedure: Regarding the opioid peptide derivatives synthesized in Examples and Reference Examples, the μ- and δ-opioid receptor affinities were obtained by a competitive receptor assay using the synaptic membrane fraction obtained from the rat brain tissue according to the known methods. That is, Sprague-Dawley rats having an average weight of 150-180 g were killed by decapitation, the brain tissue from which cerebellum had been removed was homogenized in 0.32M sucrose and 1 mM HEPES (pH 7.5) containing 50 μg/ml soybean trypsin inhibitor, fractionated and centrifuged to obtain the synaptic membrane fraction (P2 fraction), which was pre-incubated in 50 mM HEPES (pH 7.5) containing 100 mM NaCl, 0.1 mM GDP and soybean trypsin inhibitor to remove endogenous ligands from the P2 fraction.
A competitive receptor binding assay (Radiolabeled receptor assay: RRA) based on an exchange reaction between a radioactive ligand for the synaptic membrane fraction and a peptide derivative to be tested was performed by using tritium-labeled [^3H]DAGO which is a μ-opioid receptor agonist and tritium-labeled [^3H]DPDPE which has the high δ-opioid receptor selectivity, and incubating an aliquot of the synaptic membrane with the peptide derivative to be tested for a period of time. Upon this, an exchange reaction between a ligand was performed under constant conditions, the radiation remaining in the synaptic membrane fraction was measured, and an amount of the ligand adsorbed onto the synaptic membrane fraction is calculated. By assuming that binding with a receptor occurs in competition between a radioactive ligand and an end ligand, the concentration (IC50) at which the maximum specific binding of the radioactive ligand is 50% inhibited was obtained, from which the affinity constant (Ki) was calculated by a method of Cheng et al. (Biochem. Pharmcol., 22, 3099(1973)).

SD Male rats [1] = experiment: Analgesic effect, Randoll-Seritto hind limb pressure method, intravenous administration; type: in vivo; settings: rat, i.v.
Procedure: (§1) SD Male rats, weighing 110 to 130 g, were used. One group consisted of five rats. The analgesic effects were examined by a Randoll-Seritto method. […] The threshold was expressed in mm Hg. During the measurement, the upper limit of the pressure applied to a hind limb was 100 mm Hg in order to avoid damage of the tissues.
(§2) 2) When administered intravenously (i.v.), a volume of 2 ml/kg weight was administered to a tail vein and, when administered subcutaneously (s.c.), a volume of 2 ml/kg weight was subcutaneously administered to the back. In the case of intravenous administration, a 1 mg/kg, 3 mg/kg or 10 mg/kg compound of Ex.1 administration group, a 1 mg/kg, 3 mg/kg or 10 mg/kg compound of Ex.4 administration group, a 2 ml/kg physiological saline administration group and a 5 mg/kg morphine hydrochloride administration group were made, respectively. In the case of subcutaneous administration, a 10 mg/kg, 30 mg/kg or 100 mg/kg compound of Ex.1 administration group, a 10 mg/kg, 30 mg/kg or 100 mg/kg compound of Ex.4 administration group, a 2 ml/kg physiological saline administration group and a 5 mg/kg morphine hydrochloride administration group were made, respectively. Observation of the analgesic action was performed 15 minutes, 30 minutes, 1 hour and 2 hours after administration in the case of intravenous administration, 30 minutes, 1 hour, 2 hours and 3 hours after administration in the case of subcutaneous administration, respectively.
(§3) In order to perform a significant difference test between respective administration groups and control groups, and between values at respective times before administration and after administration, a Dunnet multiple comparative test method was used. In the statistical processing for performing a significant difference test between morphine hydrochloride administration groups and control groups, Student t-test was used. For performing a significant difference test between values at respective times before administration and after administration in morphine hydrochloride administration groups, a Dunnet multiple comparative test method was used. A significant level was at 5 or lower % risk rate (two-tailed test).

SD Male rats [2] = experiment: Analgesic effect, Randoll-Seritto hind limb pressure method, subcutaneous administration; type: in vivo; settings: rat, s.c.
Procedure: as §1, §2, §3

μ-opioid receptor = μ-opioid receptor (Cavia porcellus, UniProt A0ACM8Q262); experiment: Guinea pig ileum (GPI) assay, inhibition of electrically stimulated constriction; type: cell-based; settings: agonist activity, read-out: GPI (IC50 ± S.E.)
Procedure: An assay test for agonist and antagonist activities of opioid compounds was performed using guinea pig ileum (GPI) and mouse seminiferous tract (MVD). That is, male guinea pigs having the weight of around 300 g were killed by exsanguination, an ileum section having a length of around 10 cm was isolated from an ileum close to an ileum-caecum region was held at 36° C. The ileum section was placed in a Magnus tube treated with an oxygen mixture (95% O2/5% CO2) and filled with Krebs solution in the state where the rest tension of 1 g was applied with an isotonic transducer and, then, was performed. Then, the electrical stimulation was applied at 30V for 0.5 ms. via electrode previously installed in the Magnus tube to constrict guinea pig ileum longitudinal muscle and, after constriction was stabilized, a peptidase inhibitor was added. Then, the present peptide derivative to be tested was added, the constriction of guinea pig ileum longitudinal muscle was taken by GrassFTO 0.3 transducer and monitored by an amplifier and a recorder connected to the transducer. The opioid activity was determined by constriction inhibition after addition of the peptide derivative to be tested and constriction inhibition cancellation by addition of naloxone, a selective opioid antagonist. […]

[3] = 10 mg/kg, before administration
[4] = 30 mg/kg, before administration
[5] = 100 mg/kg, before administration

T1 sequence (P33533 whole entry): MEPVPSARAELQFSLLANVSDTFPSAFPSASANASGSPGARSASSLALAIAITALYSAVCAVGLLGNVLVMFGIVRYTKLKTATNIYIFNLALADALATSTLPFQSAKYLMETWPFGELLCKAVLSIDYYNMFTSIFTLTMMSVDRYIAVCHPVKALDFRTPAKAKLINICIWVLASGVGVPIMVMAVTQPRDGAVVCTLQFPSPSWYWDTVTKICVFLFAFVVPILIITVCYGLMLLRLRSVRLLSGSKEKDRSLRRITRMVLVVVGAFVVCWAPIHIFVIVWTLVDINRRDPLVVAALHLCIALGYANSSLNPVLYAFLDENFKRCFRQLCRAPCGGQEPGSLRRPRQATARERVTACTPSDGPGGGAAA
μ-opioid receptor, sequence (A0ACM8Q262 1-400): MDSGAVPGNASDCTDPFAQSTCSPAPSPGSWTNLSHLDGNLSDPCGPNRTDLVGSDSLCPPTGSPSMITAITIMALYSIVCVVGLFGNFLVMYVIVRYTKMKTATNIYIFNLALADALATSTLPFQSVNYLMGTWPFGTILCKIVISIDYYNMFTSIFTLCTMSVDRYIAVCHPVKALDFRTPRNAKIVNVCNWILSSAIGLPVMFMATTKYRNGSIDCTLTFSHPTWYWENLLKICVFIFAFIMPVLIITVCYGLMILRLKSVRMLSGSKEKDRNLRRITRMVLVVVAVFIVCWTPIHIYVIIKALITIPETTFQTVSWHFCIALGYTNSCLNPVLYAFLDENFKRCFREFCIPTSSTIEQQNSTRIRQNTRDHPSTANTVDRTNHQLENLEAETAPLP

Compound: Cc1cc(O)cc(C)c1C[C@H](N)C(=O)NCCCCCCNC(=O)[C@@H](N)Cc1c(C)cc(O)cc1C [Ex.4, 1,6-Bis(Dmt-amino)hexane.2HCl]
- Ki (δ-opioid receptor): 46.1 ± 8.8 nM
- Threshold (mmHg) (SD Male rats [1]; 3 mg/kg, 0.25 hr): 57 ± 4 mmHg
- Threshold (mmHg) (SD Male rats [1]; 3 mg/kg, 0.5 hr): 54 ± 3 mmHg
- Threshold (mmHg) (SD Male rats [1]; 3 mg/kg, 1 hr): 54 ± 5 mmHg
- Threshold (mmHg) (SD Male rats [1]; 3 mg/kg, 2 hr): 53 ± 3 mmHg
- Threshold (mmHg) (SD Male rats [1]; 3 mg/kg, before administration): 48 ± 2 mmHg
- Threshold (mmHg) (SD Male rats [1]; 10 mg/kg, 0.25 hr): 54 ± 3 mmHg
- Threshold (mmHg) (SD Male rats [1]; 10 mg/kg, 0.5 hr): 53 ± 3 mmHg
- Threshold (mmHg) (SD Male rats [1]; 10 mg/kg, 1 hr): 57 ± 2 mmHg
- Threshold (mmHg) (SD Male rats [1]; 10 mg/kg, 2 hr): 52 ± 2 mmHg
- Threshold (mmHg) (SD Male rats [1]; [3]): 49 ± 2 mmHg
- Change in escape reaction threshold / analgesic effect, in words (SD Male rats [1]; all doses (1, 3, 10 mg/kg)): significant change in the threshold was not seen at any measuring time at any dose; also recorded: no analgesic effect was seen
- Analgesic effect compared with compound of Ex.1, in words (SD Male rats [2]): weaker and has a shorter duration time than in compound of Ex.1
- Change in escape reaction threshold / analgesic effect, in words (SD Male rats [2]; 10 mg/kg): tendency of a slight increase in the threshold was seen
- Threshold (mmHg) (SD Male rats [2]; 10 mg/kg, 0.5 hr): 58 ± 3 mmHg
- Threshold (mmHg) (SD Male rats [2]; 10 mg/kg, 1 hr): 58 ± 5 mmHg
- Threshold (mmHg) (SD Male rats [2]; 10 mg/kg, 2 hr): 55 ± 5 mmHg
- Threshold (mmHg) (SD Male rats [2]; 10 mg/kg, 3 hr): 53 ± 1 mmHg
- Threshold (mmHg) (SD Male rats [2]; [3]): 47 ± 2 mmHg
- Change in escape reaction threshold / analgesic effect, in words (SD Male rats [2]; 30 mg/kg): significant increase was seen 2 hours after administration; also recorded: exhibited the significant analgesic effect 2 hours after administration
- Threshold (mmHg) (SD Male rats [2]; 30 mg/kg, 0.5 hr): 59 ± 3 mmHg
- Threshold (mmHg) (SD Male rats [2]; 30 mg/kg, 1 hr): 56 ± 3 mmHg
- Threshold (mmHg) (SD Male rats [2]; 30 mg/kg, 2 hr): 65 ± 5^$$ mmHg
- Threshold (mmHg) (SD Male rats [2]; 30 mg/kg, 3 hr): 59 ± 4 mmHg
- Threshold (mmHg) (SD Male rats [2]; [4]): 47 ± 2 mmHg
- Change in escape reaction threshold / analgesic effect, in words (SD Male rats [2]; 100 mg/kg): significant difference was seen in the measured values 30 minutes, 1 hour and 2 hours after administration; also recorded: significant analgesic effect was exhibited from 30 minutes after administration
- Threshold (mmHg) (SD Male rats [2]; 100 mg/kg, 0.5 hr): 69 ± 6**^,$$ mmHg
- Threshold (mmHg) (SD Male rats [2]; 100 mg/kg, 1 hr): 68 ± 3*^,$ mmHg
- Threshold (mmHg) (SD Male rats [2]; 100 mg/kg, 2 hr): 75 ± 8**^,$$ mmHg
- Threshold (mmHg) (SD Male rats [2]; 100 mg/kg, 3 hr): 58 ± 2 mmHg
- Threshold (mmHg) (SD Male rats [2]; [5]): 48 ± 2 mmHg

Compound: Cc1cc(O)cc(C)c1C[C@H](N)C(=O)NCCCCNC(=O)[C@@H](N)Cc1c(C)cc(O)cc1C.Cl.Cl [Ex.1, 1,4-Bis-(Dmt-amino)butane.2HCl]
- Ki (δ-opioid receptor): 53.4 ± 14.8 nM
- IC50 (μ-opioid receptor): 5.33 ± 0.65 nM
- Threshold (mmHg) (SD Male rats [1]; 1 mg/kg, before administration): 48 ± 2 mmHg
- Threshold (mmHg) (SD Male rats [1]; 3 mg/kg, 0.25 hr): 55 ± 2 mmHg
- Threshold (mmHg) (SD Male rats [1]; 3 mg/kg, 0.5 hr): 56 ± 3 mmHg
- Threshold (mmHg) (SD Male rats [1]; 3 mg/kg, 1 hr): 52 ± 4 mmHg
- Threshold (mmHg) (SD Male rats [1]; 3 mg/kg, 2 hr): 49 ± 2 mmHg
- Threshold (mmHg) (SD Male rats [1]; 3 mg/kg, before administration): 48 ± 2 mmHg
- Change in escape reaction threshold / analgesic effect, in words (SD Male rats [1]; 10 mg/kg): significant increase in the threshold was seen 15 minutes after administration; also recorded: exhibited an analgesic effect but is weaker as compared with the case of morphine 10 mg/kg administration and its duration time was shorter
- Threshold (mmHg) (SD Male rats [1]; 10 mg/kg, 0.25 hr): 60 ± 2**^,$$ mmHg
- Threshold (mmHg) (SD Male rats [1]; 10 mg/kg, 0.5 hr): 56 ± 3 mmHg
- Threshold (mmHg) (SD Male rats [1]; 10 mg/kg, 1 hr): 54 ± 2 mmHg
- Threshold (mmHg) (SD Male rats [1]; 10 mg/kg, 2 hr): 53 ± 2 mmHg
- Threshold (mmHg) (SD Male rats [1]; [3]): 48 ± 2 mmHg
- Change in escape reaction threshold / analgesic effect, in words (SD Male rats [2]; 10 mg/kg): tendency of an increase in the threshold was seen; also recorded: exhibited the significant analgesic effect as compared with control groups
- Threshold (mmHg) (SD Male rats [2]; 10 mg/kg, 0.5 hr): 55 ± 5 mmHg
- Threshold (mmHg) (SD Male rats [2]; 10 mg/kg, 1 hr): 62 ± 6 mmHg
- Threshold (mmHg) (SD Male rats [2]; 10 mg/kg, 2 hr): 58 ± 3 mmHg
- Threshold (mmHg) (SD Male rats [2]; 10 mg/kg, 3 hr): 57 ± 2 mmHg
- Threshold (mmHg) (SD Male rats [2]; [3]): 47 ± 2 mmHg
- Change in escape reaction threshold / analgesic effect, in words (SD Male rats [2]; 30 mg/kg): significant increase in the threshold was seen 1 hour and 2 hours after administration
- Threshold (mmHg) (SD Male rats [2]; 30 mg/kg, 0.5 hr): 52 ± 4 mmHg
- Threshold (mmHg) (SD Male rats [2]; 30 mg/kg, 1 hr): 65 ± 5^$$ mmHg
- Threshold (mmHg) (SD Male rats [2]; 30 mg/kg, 2 hr): 68 ± 3**^,$$ mmHg
- Threshold (mmHg) (SD Male rats [2]; 30 mg/kg, 3 hr): 59 ± 4 mmHg
- Threshold (mmHg) (SD Male rats [2]; [4]): 47 ± 2 mmHg
- Change in escape reaction threshold / analgesic effect, in words (SD Male rats [2]; 100 mg/kg): significant increase was seen at any measuring time after administration; also recorded: approximately comparative to the effect by morphine 5 mg/kg subcutaneous administration
- Threshold (mmHg) (SD Male rats [2]; 100 mg/kg, 0.5 hr): 86 ± 2**^,$$ mmHg
- Threshold (mmHg) (SD Male rats [2]; 100 mg/kg, 1 hr): 77 ± 2**^,$$ mmHg
- Threshold (mmHg) (SD Male rats [2]; 100 mg/kg, 2 hr): 77 ± 2**^,$$ mmHg
- Threshold (mmHg) (SD Male rats [2]; 100 mg/kg, 3 hr): 70 ± 3**^,$$ mmHg
- Threshold (mmHg) (SD Male rats [2]; [5]): 47 ± 2 mmHg
